Values quoted from earlier work as cited in US6548087B1, “Nutritional supplement” (priority 1999, dated 2003).

Test system: libido and performance
Conditions: daily use

SMILES: C[C@]12CC[C@H](O)CC1=CC[C@@H]1[C@@H]2CC[C@]2(C)C(=O)CC[C@@H]12 [DHEA, dehydroepiandrosterone]
- effect on libido and performance: increase libido and performance
